According to patent US11331299B2, “Medicinal use of serrulatane diterpenes” (The University of Sydney, priority 2016, dated 2022):
pEC50, pIC50: −log10 of the molar value. Where two headings read alike, the source gives them in different places.

Experiments:
[1] = target: T1, BRPF1-1 (h) bromodomain (Homo sapiens, UniProt P55201); experiment: Epigenetic binding assay, Bromodomain; details: Table 4; read-out: Reference IC50
T1 construct: Bromodomain
T1 sequence (P55201 628-732 limits assumed): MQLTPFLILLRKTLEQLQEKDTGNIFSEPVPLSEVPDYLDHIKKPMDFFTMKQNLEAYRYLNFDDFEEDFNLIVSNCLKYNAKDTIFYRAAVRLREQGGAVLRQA

[2] = target: receptors (Bioprint panel); experiment: biochemical; assay type: binding; details: read-out: Reference Compound IC50
[3] = test system: CCD 841 CoN; experiment: OncoPanel normal cell proliferation assay (3-day); assay type: cell-based; details: Homo sapiens, 72 h, colon epithelial, 3-day incubation; for pEC50: read-out: Cell Count EC50; for GI50: read-out: Cell Count GI50; for pIC50: read-out: Cell Count IC50
[4] = test system: HMEC; experiment: OncoPanel normal cell proliferation assay (3-day); assay type: cell-based; details: Homo sapiens, 72 h, HMEC, mammary epithelial, 3-day incubation; for pEC50: read-out: Cell Count EC50; for GI50: read-out: Cell Count GI50; for pIC50: read-out: Cell Count IC50
[5] = test system: Wi38; experiment: OncoPanel normal cell proliferation assay (3-day); assay type: cell-based; details: Homo sapiens, WI-38, 72 h, Wi38, lung fibroblast, 3-day incubation; for pEC50: read-out: Cell Count EC50; for GI50: read-out: Cell Count GI50; for pIC50: read-out: Cell Count IC50
[6] = test system: HREC; experiment: OncoPanel normal cell proliferation assay (3-day); assay type: cell-based; details: 72 h, renal mixed epithelial, 3-day incubation; for pEC50: read-out: Cell Count EC50; for GI50: read-out: Cell Count GI50; for pIC50: read-out: Cell Count IC50
[7] = target: T2, TAF1(1) (h) bromodomain (Homo sapiens, UniProt P21675); experiment: Epigenetic binding assay, Bromodomain; details: Table 4; read-out: Reference IC50
T2 construct: Bromodomain
T2 sequence (P21675 1397-1505 limits assumed): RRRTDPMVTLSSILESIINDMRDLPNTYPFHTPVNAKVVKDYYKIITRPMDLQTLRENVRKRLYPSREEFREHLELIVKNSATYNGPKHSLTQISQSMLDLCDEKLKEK

[8] = target: T3, TAF1(2)(h) bromodomain (Homo sapiens, UniProt P21675); experiment: Epigenetic binding assay, Bromodomain; details: Table 4; read-out: Reference IC50
T3 construct: Bromodomain
T3 sequence (P21675 1519-1628 limits assumed): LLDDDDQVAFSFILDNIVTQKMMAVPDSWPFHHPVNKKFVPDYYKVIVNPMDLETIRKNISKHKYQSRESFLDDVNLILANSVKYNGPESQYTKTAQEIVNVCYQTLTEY

[9] = target: T4, KAT2A (GCN5L2) (h) bromodomain (Homo sapiens, UniProt Q92830); experiment: Epigenetic binding assay, Bromodomain; details: Table 9, inhibition/concentration-response curve; read-out: IC50
T4 construct: Bromodomain
T4 sequence (Q92830 728-832 limits assumed): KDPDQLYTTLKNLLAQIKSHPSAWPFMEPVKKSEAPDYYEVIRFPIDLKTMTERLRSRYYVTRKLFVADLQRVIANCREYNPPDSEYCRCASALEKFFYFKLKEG

[10] = test system: human pancreatic carcinoma MIA PaCa-2; details: 80 mg/kg Q4D x 4 IP
[11] = target: T5, FALZ (h) bromodomain (Homo sapiens, UniProt Q12830); experiment: Epigenetic binding assay, Bromodomain; details: Table 4; read-out: Reference IC50
T5 construct: Bromodomain; Eurofins CEREP (France), contract laboratory

[12] = target: T6, ATAD2A (h) bromodomain (Homo sapiens, UniProt Q6PL18); experiment: Epigenetic binding assay, Bromodomain; details: Table 9, inhibition/concentration-response curve; read-out: IC50
T6 construct: Bromodomain
T6 sequence (Q6PL18 980-1092 limits assumed): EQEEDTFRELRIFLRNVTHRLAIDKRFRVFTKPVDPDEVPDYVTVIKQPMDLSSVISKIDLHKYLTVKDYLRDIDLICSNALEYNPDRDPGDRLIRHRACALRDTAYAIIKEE

[13] = target: T7, SP140 (h) bromodomain (Homo sapiens, UniProt Q13342); experiment: Epigenetic binding assay, Bromodomain
T7 construct: SP140 (h) bromodomain
T7 sequence (Q13342 754-857 limits assumed): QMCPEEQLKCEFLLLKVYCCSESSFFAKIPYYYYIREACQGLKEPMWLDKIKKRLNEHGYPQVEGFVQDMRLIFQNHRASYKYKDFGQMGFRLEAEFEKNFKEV

[14] = target: T8, PHIP(2) (h) bromodomain (Homo sapiens, UniProt Q8WWQ0); experiment: Epigenetic binding assay, Bromodomain; details: Table 4; read-out: Reference IC50
T8 construct: Bromodomain

[15] = assay type: in vivo, female NOD/SCID mice; details: Study 1, IP, 35 mg/kg
Procedure: Two studies were conducted by Eurofins Panlabs Taiwan, Ltd. The purpose of Study 1 was to assess the possible adverse effects of Compound 1 alone or in combination with […] in Maximum Tolerated Dose (MTD) assay. The purpose of Study 2 is a follow-up study performed at escalating doses.
Compound 1 was dissolved in 10% Tween 20/90% PBS or 20% Tween 20/80% PBS for IP injections. Compound 1 was administrated alone or in combination with […] at a dosing volume of 10 or 20 mL/kg for each substance.
For mortality, test substance (Compound 1; 100 mg/kg) alone or in combination with […] (8.75, 17.5, or 35 mg/kg; given on the same day) was administered to mice by IP injection to evaluate the possible adverse effects in MTD assay. […]. […]
A follow-up MTD study was performed to evaluate for the adverse effects of the test substance (Compound 1) at escalating doses alone or in combination with […] (17.5 mg/kg) via IP in a group of 3 female NOD/SCID mice at 6-7 weeks of age.
For mortality, treatment with Compound 1 at escalating doses (200 mg/kg) alone and in combination with […] (17.5 mg/kg; given on the same day) were administered by IP injection to a group of 3 female NOD/SCID mice at 6-7 weeks of age. The mortality was monitored at 30 min and again at 3, 24, 48 and 72 hours after compound administrations.
For body weight, test substance (Compound 1) at escalating doses (200 mg/kg) alone or in combination with […] (17.5 mg/kg; given on the same day) were administered by IP injection to a group of 3 female NOD/SCID mice at 6-7 weeks of age. The body weight of each animal was measured and recorded daily for 3 days.
For behavioral, symptomatic i.e. neurological and autonomic signs, test substance (Compound 1; 200 mg/kg) alone or in combination with […] (17.5 mg/kg; given on the same day) were administered by IP injection to a group of 3 female NOD/SCID mice at 6-7 weeks of age. The animals were then observed for presences of acute toxic symptoms and autonomic effects for 30 min after the first dose.

CCOC(=O)Nc1cc(-c2ccc(C)c(NS(C)(=O)=O)c2)nn2c(C)nnc12 [Bromosporine, reference compound]
pIC50 [1]: 7.59

C[C@H](NC[C@H](O)CP(=O)(O)CC1CCCCC1)c1ccc(Cl)c(Cl)c1 [CGP 54626]
pIC50 ([2]; GABA GABAB(1b) (h) (antagonist radioligand)): 8.66

N#CC(C#N)=NNc1cccc(Cl)c1 [Carbonyl cyanide 3-chlorophenylhydrazone]
pEC50 [3]: 5.00
GI50 [3]: 6210 nM
pIC50 [3]: 5.00
pEC50 [4]: < 5.00
GI50 [4]: 175 nM
pIC50 [4]: < 5.00
pEC50 [5]: 5.05
GI50 [5]: 6150 nM
pIC50 [5]: 5.05
pEC50 [6]: 6.26
GI50 [6]: 308 nM
pIC50 [6]: 5.82

CCCCCCCCCCCCCCCCOC[C@H](COP(=O)([O-])OCC[N+](C)(C)C)OC(C)=O [Compound C16-PAF]
pIC50 ([2]; PLATELET ACTIVATED FACTOR PAF (h) (agonist radioligand)): 8.47

CCCOc1ccn2c(C(C)=O)cc(-c3ccccc3S(C)(=O)=O)c2c1 [GSK2801, reference compound]
pIC50 [7]: 5.36
pIC50 [8]: 5.00
pIC50 [9]: 5.00

Nc1ccn([C@@H]2O[C@H](CO)[C@@H](O)C2(F)F)c(=O)n1 [Gemcitabine, reference compound]
% T/C ([10]; Day 1): 99%
% TGI ([10]; Day 1): 1%
Tumor Volume, Mean ([10]; Day 1): 89 mm3
% T/C ([10]; Day 4): 100%
% TGI ([10]; Day 4): 0%
Tumor Volume, Mean ([10]; Day 4): 94 mm3
% T/C ([10]; Day 8): 81%
% TGI ([10]; Day 8): 19%
Tumor Volume, Mean ([10]; Day 8): 107 mm3
% T/C ([10]; Day 11): 70%
% TGI ([10]; Day 11): 30%
Tumor Volume, Mean ([10]; Day 11): 139 mm3
% T/C ([10]; Day 15): 55%
% TGI ([10]; Day 15): 45%
Tumor Volume, Mean ([10]; Day 15): 207 mm3

CCC(=O)N1CCOc2c(cc(-c3ccc(OC)c(OC)c3)cc2OC[C@H]2CCCN(C)C2)C1 [I-CBP112, reference compound]
pIC50 [11]: 4.61

Cc1cc(/N=N/c2cc(S(=O)(=O)O)c(C)cc2C)c(N)cc1O [Ischemin, reference compound]
pIC50 [12]: 5.28
pIC50 ([13]; Table 4, read-out: Reference IC50): 4.07
pIC50 ([13]; Table 9, inhibition/concentration-response curve, read-out: IC50): 4.96

N[C@@H](CCC(=O)O)C(=O)O [L-glutamate]
pIC50 ([2]; GLUTAMATE CHANNELS AMPA (agonist radioligand)): 6.43

C[C@]12N[C@H](Cc3ccccc31)c1ccccc12 [MK 801]
pIC50 ([2]; GLUTAMATE CHANNELS PCP (antagonist radioligand)): 8.02

CCCCC[C@H](O)/C=C/[C@@H]1[C@@H](C/C=C\CCCC(=O)O)[C@@H](O)C[C@H]1O [PGF2alpha]
pIC50 ([2]; […] (h) (agonist radioligand)): 8.52

COc1ccc(CCc2nc3cc(-c4c(C)noc4C)ccc3n2C[C@H](C)N2CCOCC2)cc1Cl [SGC-CBP30, reference compound]
pIC50 [14]: 6.89

CN[C@@H]1C[C@H]2O[C@@](C)([C@@H]1OC)n1c3ccccc3c3c4c(c5c6ccccc6n2c5c31)C(=O)NC4 [Staurosporine]
GI50 [3]: 0.19 nM
pEC50 [4]: 8.64
GI50 [4]: 0.91 nM
pEC50 [5]: 9.31
GI50 [5]: 0.33 nM
GI50 [6]: 0.5 nM

C[C@@H]1C[C@@H]([C@H](O)CC2CC(=O)NC(=O)C2)C(=O)[C@@H](C)C1 [cycloheximide, reference compound]
pEC50 [3]: 6.30
GI50 [3]: 588 nM
pIC50 [3]: 5.56
pEC50 [4]: 5.44
GI50 [4]: 306 nM
pIC50 [4]: 5.00
pEC50 [5]: 6.55
GI50 [5]: 369 nM
pIC50 [5]: 6.06
pEC50 [6]: 6.93
GI50 [6]: 36.9 nM
pIC50 [6]: 6.23

CN1C(=O)CN=C(c2ccccc2)c2cc(Cl)ccc21 [diazepam]
pIC50 [2]: 8.03

COc1ccc([C@@H]2Sc3ccccc3N(CCN(C)C)C(=O)[C@@H]2OC(C)=O)cc1 [diltiazem]
pIC50 ([2]; Ca2+ channel (L, diltiazem site) (benzothiazepines) (antagonist radioligand)): 7.24

C=C(C)[C@H]1CN[C@H](C(=O)O)[C@H]1CC(=O)O [kainic acid]
pIC50 [2]: 7.64

C=C(C)[C@@H]1[C@H]2OC(=O)[C@@H]1[C@]1(O)C[C@H]3O[C@]34C(=O)O[C@H]2[C@]14C [picrotoxinin]
pIC50 ([2]; Cl- channel (GABA-gated) (antagonist radioligand)): 6.48

NPY
pIC50 ([2]; NE[…] Y1 (h) (agonist radioligand)): 9.80

TNF-alpha
pIC50 ([2]; CYTOKINES TNF-alpha (h) (agonist radioligand)): 9.80

[Nleu13]-motilin (FVPIFTYGELQRLQEKERNKGQ; Motilin norleucine at 13; UniProt P12872 26-47, looked up, variant M13L)
pIC50 ([2]; motilin(h) (agonist radioligand)): 9.05

alpha -bungarotoxin
pIC50 [2]: 8.72

carboplatin [reference compound]
Response (death/test) ([15]; 30 min): 0/3
Response (death/test) ([15]; 3 hrs): 0/3
Response (death/test) ([15]; Day 1): 0/3
Response (death/test) ([15]; Day 2): 0/3
Response (death/test) ([15]; Day 3): 0/3

glucagon
pIC50 ([2]; glucagon (h) (agonist radioligand)): 9.00

omega -conotoxin GVIA
pIC50 [2]: 11.77
